Test results: ChEMBL document CHEMBL3244163, “Antifungal agents. 5. Chemical modification of antibiotics from Polyangium cellulosum var. fulvum. Alcohol, ketone, aldehyde, and oxime analogues of ambruticin” (1979)
In brackets after ≈: the same amount, converted by molar mass. Activity calls are given as the source filed them. The calls are words filed in the database; no cut-off is given here.

What was measured:
Candida albicans = assay: Antifungal activity against Candida albicans by standard broth dilution technique; format: functional, organism-based
[1] = Antifungal activity against Microsporum fulvum assessed as growth inhibition after 3 days by standard broth dilution technique; format: functional; conditions: Arthroderma fulvum
Histoplasma capsulatum = assay: Antifungal activity against Histoplasma capsulatum assessed as growth inhibition after 3 days by standard broth dilution technique; format: functional; conditions: 72 h
Streptococcus pyogenes = assay: Antibacterial activity against Streptococcus pyogenes by standard broth dilution technique; format: functional, organism-based

Structure (SMILES)	Activity (Candida albicans)	MIC [1] [µg/mL]	MIC (Histoplasma capsulatum) [µg/mL]	Activity (Streptococcus pyogenes)
CC[C@H]1O[C@@H](/C(C)=C/[C@H](C)/C=C/[C@H]2[C@@H](C)[C@@H]2/C=C/[C@@H]2O[C@H](CCO)CC(=O)[C@H]2O)CC=C1C	inactive	0.78 (≈ 1.7 µM)	6.25 (≈ 13.6 µM)	inactive
CC[C@H]1O[C@@H](/C(C)=C/[C@H](C)/C=C/[C@H]2[C@@H](C)[C@@H]2/C=C/[C@@H]2O[C@H](CC(O)(CC)CC)C[C@H](O)[C@H]2O)CC=C1C	inactive	3.12 (≈ 6.04 µM)	1.56 (≈ 3.02 µM)	inactive
CC[C@H]1O[C@@H](/C(C)=C/[C@H](C)/C=C/[C@H]2[C@@H](C)[C@@H]2/C=C/[C@@H]2O[C@H](CCOC(=O)Nc3ccc(Cl)cc3)C[C@H](OC(=O)Nc3ccc(Cl)cc3)[C@H]2OC(=O)Nc2ccc(Cl)cc2)CC=C1C	inactive	> 50		inactive
CC[C@H]1O[C@@H](/C(C)=C/[C@H](C)/C=C/[C@H]2[C@@H](C)[C@@H]2/C=C/[C@@H]2O[C@H](CC(=O)OC)C[C@@H](O)[C@H]2O)CC=C1C	inactive	0.39 (≈ 0.798 µM)	0.39 (≈ 0.798 µM)	inactive
CC[C@H]1O[C@@H](/C(C)=C/[C@H](C)/C=C/[C@H]2[C@@H](C)[C@@H]2/C=C/[C@@H]2O[C@H](CC=O)C[C@H](O)[C@H]2O)CC=C1C	inactive	0.098 (≈ 0.214 µM)	0.78 (≈ 1.7 µM)	inactive
CC[C@H]1O[C@@H](/C(C)=C/[C@H](C)/C=C/[C@H]2[C@@H](C)[C@@H]2/C=C/[C@@H]2O[C@H](CC(O)(C(C)C)C(C)C)C[C@H](O)[C@H]2O)CC=C1C	inactive	> 50	50 (≈ 91.8 µM)	inactive
CC[C@H]1O[C@@H](/C(C)=C/[C@H](C)/C=C/[C@H]2[C@@H](C)[C@@H]2/C=C/[C@@H]2O[C@H](CC(=O)OC)CC(=O)[C@H]2O)CC=C1C	inactive	0.195 (≈ 0.401 µM)	0.39 (≈ 0.801 µM)	inactive
CC[C@H]1O[C@@H](/C(C)=C/[C@H](C)/C=C/[C@H]2[C@@H](C)[C@@H]2/C=C/[C@@H]2O[C@H](CC(O)C(C)(C)C)C[C@H](O)[C@H]2O)CC=C1C (some centres undefined)	inactive	> 50	6.25 (≈ 12.1 µM)	inactive
CC[C@H]1O[C@@H](/C(C)=C/[C@H](C)/C=C/[C@H]2[C@@H](C)[C@@H]2/C=C/[C@@H]2O[C@H](CCO)C[C@@H](O)[C@H]2O)CC=C1C	inactive	0.39 (≈ 0.847 µM)	0.39 (≈ 0.847 µM)	inactive
CC[C@H]1O[C@@H](/C(C)=C/[C@H](C)/C=C/[C@H]2[C@@H](C)[C@@H]2/C=C/[C@@H]2O[C@H](CC(C)O)C[C@H](O)[C@H]2O)CC=C1C (some centres undefined)	inactive	0.195 (≈ 0.411 µM)	0.098 (≈ 0.206 µM)	inactive
CCC(=O)C[C@@H]1C[C@H](O)[C@@H](O)[C@H](/C=C/[C@H]2[C@H](C)[C@@H]2/C=C/[C@@H](C)/C=C(\C)[C@H]2CC=C(C)[C@@H](CC)O2)O1	inactive	0.78 (≈ 1.6 µM)	0.78 (≈ 1.6 µM)	inactive
CC[C@H]1O[C@@H](/C(C)=C/[C@H](C)/C=C/[C@H]2[C@@H](C)[C@@H]2/C=C/[C@@H]2O[C@H](CC(=O)O)C/C(=N/O)[C@H]2O)CC=C1C	inactive	1.56 (≈ 3.2 µM)	3.12 (≈ 6.4 µM)	inactive
CC[C@H]1O[C@@H](/C(C)=C/[C@H](C)/C=C/[C@H]2[C@@H](C)[C@@H]2/C=C/[C@@H]2O[C@H](CC(=O)c3ccccc3)C[C@H](O)[C@H]2O)CC=C1C	inactive	25 (≈ 46.8 µM)	6.25 (≈ 11.7 µM)	inactive
CC[C@H]1O[C@@H](/C(C)=C/[C@H](C)/C=C/[C@H]2[C@@H](C)[C@@H]2/C=C/[C@@H]2O[C@H](CCOC(C)=O)C[C@H](OC(C)=O)[C@H]2OC(C)=O)CC=C1C	inactive	> 50	50 (≈ 85.2 µM)	inactive
CC[C@H]1O[C@@H](/C(C)=C/[C@H](C)/C=C/[C@H]2[C@@H](C)[C@@H]2/C=C/[C@@H]2O[C@H](CC(O)(c3ccccc3)c3ccccc3)C[C@H](O)[C@H]2O)CC=C1C	inactive	> 50	50 (≈ 81.6 µM)	inactive
CC[C@H]1O[C@@H](/C(C)=C/[C@H](C)/C=C/[C@H]2[C@@H](C)[C@@H]2/C=C/[C@@H]2O[C@H](CC(C)(C)O)C[C@H](O)[C@H]2O)CC=C1C	inactive	0.195 (≈ 0.399 µM)	0.78 (≈ 1.6 µM)	inactive

Structure (SMILES)	Activity (Candida albicans)	MIC [1] [µg/mL]	MIC (Histoplasma capsulatum) [µg/mL]	Activity (Streptococcus pyogenes)
CCC(O)C[C@@H]1C[C@H](O)[C@@H](O)[C@H](/C=C/[C@H]2[C@H](C)[C@@H]2/C=C/[C@@H](C)/C=C(\C)[C@H]2CC=C(C)[C@@H](CC)O2)O1 (some centres undefined)	inactive		0.78 (≈ 1.6 µM)	inactive
CC[C@H]1O[C@@H](/C(C)=C/[C@H](C)/C=C/[C@H]2[C@@H](C)[C@@H]2/C=C/[C@@H]2O[C@H](CC(=O)O)C[C@H](O)[C@H]2O)CC=C1C [AMBRUTICIN]	inactive	0.098 (≈ 0.206 µM)	0.39 (≈ 0.822 µM)	inactive
CC[C@H]1O[C@@H](/C(C)=C/[C@H](C)/C=C/[C@H]2[C@@H](C)[C@@H]2/C=C/[C@@H]2O[C@H](CCO)C[C@](C)(O)[C@H]2O)CC=C1C	inactive	0.78 (≈ 1.64 µM)	0.78 (≈ 1.64 µM)	inactive
CC[C@H]1O[C@@H](/C(C)=C/[C@H](C)/C=C/[C@H]2[C@@H](C)[C@@H]2/C=C/[C@@H]2O[C@H](CCO)C[C@@](O)(c3ccccc3)[C@H]2O)CC=C1C	inactive	6.25 (≈ 11.6 µM)	3.12 (≈ 5.81 µM)	inactive
CC[C@H]1O[C@@H](/C(C)=C/[C@H](C)/C=C/[C@H]2[C@@H](C)[C@@H]2/C=C/[C@@H]2O[C@H](CC(=O)OC)C/C(=N/O)[C@H]2O)CC=C1C	inactive		0.78 (≈ 1.55 µM)	inactive
CC[C@H]1O[C@@H](/C(C)=C/[C@H](C)/C=C/[C@H]2[C@@H](C)[C@@H]2/C=C/[C@@H]2O[C@H](CC(=O)O)C[C@@H](O)[C@H]2O)CC=C1C	inactive	0.195 (≈ 0.411 µM)	0.78 (≈ 1.64 µM)	inactive
CC[C@H]1O[C@@H](/C(C)=C/[C@H](C)/C=C/[C@H]2[C@@H](C)[C@@H]2/C=C/[C@@H]2O[C@H](CC(=O)OC)C[C@H](O)[C@H]2O)CC=C1C	inactive	0.39 (≈ 0.798 µM)	0.39 (≈ 0.798 µM)	inactive
CC[C@H]1O[C@@H](/C(C)=C/[C@H](C)/C=C/[C@H]2[C@@H](C)[C@@H]2/C=C/[C@@H]2O[C@H](CCO)C[C@@](O)(CC)[C@H]2O)CC=C1C	inactive	1.56 (≈ 3.19 µM)	1.56 (≈ 3.19 µM)	inactive
CC[C@H]1O[C@@H](/C(C)=C/[C@H](C)/C=C/[C@H]2[C@@H](C)[C@@H]2/C=C/[C@@H]2O[C@H](CCO)C[C@H](O)[C@H]2O)CC=C1C	inactive	0.098 (≈ 0.213 µM)	0.098 (≈ 0.213 µM)	inactive
CC[C@H]1O[C@@H](/C(C)=C/[C@H](C)/C=C/[C@H]2[C@@H](C)[C@@H]2/C=C/[C@@H]2O[C@H](CCO)C/C(=N\O)[C@H]2O)CC=C1C	inactive	0.195 (≈ 0.412 µM)	0.098 (≈ 0.207 µM)	inactive
CC[C@H]1O[C@@H](/C(C)=C/[C@H](C)/C=C/[C@H]2[C@@H](C)[C@@H]2/C=C/[C@@H]2O[C@H](CC(C)=O)C[C@H](O)[C@H]2O)CC=C1C	inactive	0.195 (≈ 0.413 µM)	0.39 (≈ 0.825 µM)	inactive
CC[C@H]1O[C@@H](/C(C)=C/[C@H](C)/C=C/[C@H]2[C@@H](C)[C@@H]2/C=C/[C@@H]2O[C@H](CCOC(=O)Nc3ccc(Br)cc3)C[C@H](OC(=O)Nc3ccc(Br)cc3)[C@H]2OC(=O)Nc2ccc(Br)cc2)CC=C1C	inactive	> 50		inactive
CC[C@H]1O[C@@H](/C(C)=C/[C@H](C)/C=C/[C@H]2[C@@H](C)[C@@H]2/C=C/[C@@H]2O[C@H](CCOC(=O)Nc3ccccc3)C[C@H](OC(=O)Nc3ccccc3)[C@H]2OC(=O)Nc2ccccc2)CC=C1C	inactive	> 50		inactive
CC[C@H]1O[C@@H](/C(C)=C/[C@H](C)/C=C/[C@H]2[C@@H](C)[C@@H]2/C=C/[C@@H]2O[C@H](CC(=O)C(C)(C)C)C[C@H](O)[C@H]2O)CC=C1C	inactive	> 50	12.5 (≈ 24.3 µM)	inactive
CC[C@H]1O[C@@H](/C(C)=C/[C@H](C)/C=C/[C@H]2[C@@H](C)[C@@H]2/C=C/[C@@H]2O[C@H](CC(O)c3ccccc3)C[C@H](O)[C@H]2O)CC=C1C (some centres undefined)	inactive	1.56 (≈ 2.91 µM)	1.56 (≈ 2.91 µM)	inactive
